Data published in patent US9381208B2, “Structure and use of 5′ phosphate oligonucleotides” (Rheinische Friedrich-Wilhelms-Universität, priority 2006, dated 2016).

Legend:
[1] = test system: B16 melanoma lung metastases; assay: B16 melanoma lung metastases model; format: in vivo; settings: C57BL/6 mice, 50 μg complexed with jetPEI intravenously on day 3, 6 and 9, day 14, compared with PolyA
Experimental: (a) Therapeutic regimen: Mice were challenged with 4×10^5 B16 melanoma cells intravenously to experimentally induce lung metastases on day 0. Mice were treated intravenously with the indicated nucleic acid complexed to jetPEI™ on day 3, 6 and 9 as indicated. 14 days after challenge, the number of macroscopically visible melanoma metastases on the surface of the lungs was counted with the help of a dissecting microscope or the lung weight was calculated.
(b) Groups of five C57BL/6 mice were challenged with 4×10^5 B16 and treated as described. Mice were treated intravenously on day 3, 6 and 9 with 50 μg of OH-2.2, 50 μg 3p-2.2, 50 μg 3p-GC (a nonspecific double-stranded 3p-RNA) or 50 μg CpG oligonucleotide ligand, each complexed with jetPEI™. Control groups received 100 μl of Glucose 5% or 50 μg of PolyA complexed with jetPEI™. Tumor growth was assessed after 14 days by measuring the weight of the lungs. Shown are lung weights of five individual mice. The mean lung weight is indicated by a column. […]
For the induction of lung metastases we injected 4×10^5 B16 melanoma cells into the tail vein of the indicated mice. […] 14 days after challenge the number of macroscopically visible melanoma metastases on the surface of the lungs was counted with the help of a dissecting microscope or, in case of massive tumor load, lung weight was determined. […]

[2] = Blood cell counts (leucocytes, platelets) after injection; format: in vivo, C57BL/6 mice; settings: 50 μg, 48 hours
Experimental: (b & c) C57BL/6 mice were injected with 50 μg 3p-2.2 complexed with jetPEI™. Blood was collected after 48 h and processed as EDTA […] for measurement of leucocytes (WBC) and platelets. Blood cell counts were performed at the Central Laboratory of the Department of Internal Medicine, University of Munich at the indicated time point (P**<0.01 between the platelet count of 3p-2.2 and CpG). Data are shown as means±SEM of 2 independent experiments.

human primary monocytes = assay: IFN-α production in human primary monocytes transfected with RNA (ELISA); format: cell-based; settings: 200 ng RNA transfected, 24 hours, ELISA
PBMC = assay: IFN-α in PBMC transfected with chemically synthesized 5′ triphosphate RNA (ELISA); format: cell-based, human; settings: oligonucleotide alone, 0.2 μg, 24 hours
Experimental: PBMC were transfected with chemically synthesized single-strand oligonucleotides alone or together with their complementary antisense strand (AS) by using Lipofectamine and incubated in the presence or absence of chloroquine (Chl). CpG2331 was used as a positive and chloroquine-sensitive control for IFN-α induction in PBMC.
The isRNA9.2 (Hornung V et al. (2005) Nat Med 11(3):263-70) generated by in vitro transcription was used a positive control (IVT2-3PRNA). CpG2331 is a TLR9 ligand. PBMC (400,000 cells per well) were transfected with oligonucleotides by using Lipofectamin (0.5 μl, 0.2 μg oligonucleotide). Hybridization of complementary strands was performed by heating 4 μg total RNA in 20 μl of buffer (final 50 mM Tris/HCl pH7.5 100 mM NaCl) up to 70° C. followed by cooling down to 40° C. Chloroquine was used to block TLR-mediated nucleic acid recognition (2.5 μg/ml).

PDC = assay: IFN-α production in human PDC (ELISA); format: cell-based; settings: 24 hours
Experimental: Human PBMC were prepared from whole blood donated by young healthy donors by Ficoll-Hypaque density gradient centrifugation (Biochrom, Berlin, Germany). PDC were isolated by MACS using the blood dendritic cell Ag (BCDA)-4 dendritic cell isolation kit from Miltenyi Biotec (Bergisch-Gladbach, Germany). Briefly, PDC were labelled with anti-BDCA-4 Ab coupled to colloidal paramagnetic microbeads and passed through a magnetic separation column twice (LS column, then MS column; Miltenyi Biotec). The purity of isolated PDC (lineage-negative, MHC-II-positive and CD123-positive cells) was above 95%. Before isolation of monocytes, PDC were depleted by MACS (LD column; Miltenyi Biotec) and then monocytes were isolated using the monocyte isolation kit II (Miltenyi Biotec). […] PDC cultures were additionally supplemented with 10 ng/ml IL-3 (R&D Systems). […] Vero (African green monkey kidney) and HEK 293T (human embryonic kidney) cells were maintained in Dulbecco's modified Eagle's medium supplemented with antibiotics and 5% or 10% foetal calf serum, respectively. BSR cells were propagated in Glasgow minimal essential medium supplemented with 10% newborn calf serum, phosphate broth, amino acids and antibiotics.
Human IFN-α was assessed in cell culture supernatants using the IFN-α module set (Bender MedSystems, Graz, Austria). The murine IP-10 ELISA was from Biosource (Solingen, Germany), the murine IFN-[…] ELISA was from PBL Biomedical Laboratories (Piscataway, USA). All ELISA procedures were performed, according to manufacturers' recommendations.

thrombocytopenia [2] | Substance | lung metastases [1] | IFN-α production in monocytes (human primary monocytes) | IFN-α induction in PBMC (PBMC) | IFN-α production in PDC (PDC)
more apparent | 5′-TCCATGACGTTCCTGACGTT-3′ [CpG 1826] | significant reduction of lung metastases, but to a lesser extent than 3p-2.2 |  |  | 
 | 5′-pppAGCUUAACCUGUCCUUCAA-3′ [9.2s (IVT)] |  | strongly induced IFN-α production | induced IFN-α | produced IFN-α
